In patent publication US11548870B2, “Compounds useful as inhibitors of helios protein” (Bristol-Myers Squibb Company, priority 2019, dated 2023):
Where two headings read alike, the source gives them in different places.

Legend:
Helios = target: T1, Helios (Homo sapiens, UniProt Q96SW2+Q9UKS7); test: Helios Cellular Degradation Assay (flow cytometry, Helios-PE antibody staining, 72 h); type: cell-based; details: for Dmax: Jurkat, read-out: Helios Dmax
T1 construct: fluorescently labelled antibodies against Helios and Ikaros; endogenous in cells; host or cells: Jurkat cells
Protocol: (§1) Helios Cellular Degradation Assay
(§2) Jurkat cells were plated at 80,000 cells/well in 40 μL RPMI+10% FBS in a 384 well cell culture plate prior to using acoustic dispensing technology for adding compound of interest. Cell cultures were incubated for 72 h at 37° C. and 5% CO2. In order to facilitate analysis, cell cultures were spun down at 200 rpm for 5 min and the supernatant was discarded. After shaking the plate to dislodge the cell pellet, cells were resuspended in 50 μL of Fixation Buffer (eBioScience FoxP3 buffer set 0000) for 60 min at room temperature. After centrifuging and discarding the supernatant, cells were permeabilized with 50 μL of Permeabilization buffer (eBioScience FoxP3 buffer set 00-5523-00) for 10 min at room temperature. Following permeabilization, cells were spun down and the supernatant was replaced with 20 μL fluorescently labelled antibodies against Helios and Ikaros or corresponding Isotype controls in 1× Permeabilization buffer (Ikaros-Alexa488 [Biolegend, Cat #368408, 1:50], Helios-PE [CST, Cat #29360, 1:50]) and staining reactions were incubated for 1 h at room temperature; protected from light. Subsequently, 30 μL of 1× Permeabilization buffer was added prior to centrifuging the cells and discarding the supernatant. Stained cells were resuspended in 25 μL of flow cytometry staining buffer (PBS+0.2% BSA) and analyzed using an Intellicyt Ique Plus flow cytometer.
as §2, with “00-5523-00)” for “0000)”

Ikaros = target: T2, Ikaros (Homo sapiens, UniProt Q13422); test: Helios Cellular Degradation Assay, Ikaros readout (flow cytometry, Ikaros-Alexa488 antibody staining, 72 h); type: cell-based; details: Jurkat cells, 72 h incubation, flow cytometry; for Dmax: Jurkat, read-out: Ikaros Dmax
T2 construct: fluorescently labelled antibodies against Helios and Ikaros; endogenous in cells; host or cells: Jurkat cells
Protocol: as §1, §2
as §2, with “00-5523-00)” for “0000)”

[1] = Jurkat cells, 72 h incubation, flow cytometry

T2 sequence (Q96SW2 whole entry partner): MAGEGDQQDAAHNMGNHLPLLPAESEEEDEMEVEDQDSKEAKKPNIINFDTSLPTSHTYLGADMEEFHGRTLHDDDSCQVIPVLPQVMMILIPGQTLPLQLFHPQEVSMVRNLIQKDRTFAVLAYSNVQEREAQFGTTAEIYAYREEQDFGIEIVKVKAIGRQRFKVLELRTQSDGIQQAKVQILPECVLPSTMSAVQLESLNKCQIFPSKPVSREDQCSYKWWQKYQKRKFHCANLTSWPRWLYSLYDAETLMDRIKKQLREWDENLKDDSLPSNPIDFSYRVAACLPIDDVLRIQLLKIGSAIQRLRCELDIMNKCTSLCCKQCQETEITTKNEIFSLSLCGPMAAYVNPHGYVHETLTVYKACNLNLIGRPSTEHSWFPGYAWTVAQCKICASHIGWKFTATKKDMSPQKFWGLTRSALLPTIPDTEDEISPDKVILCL
T2 sequence (Q16531 whole entry partner): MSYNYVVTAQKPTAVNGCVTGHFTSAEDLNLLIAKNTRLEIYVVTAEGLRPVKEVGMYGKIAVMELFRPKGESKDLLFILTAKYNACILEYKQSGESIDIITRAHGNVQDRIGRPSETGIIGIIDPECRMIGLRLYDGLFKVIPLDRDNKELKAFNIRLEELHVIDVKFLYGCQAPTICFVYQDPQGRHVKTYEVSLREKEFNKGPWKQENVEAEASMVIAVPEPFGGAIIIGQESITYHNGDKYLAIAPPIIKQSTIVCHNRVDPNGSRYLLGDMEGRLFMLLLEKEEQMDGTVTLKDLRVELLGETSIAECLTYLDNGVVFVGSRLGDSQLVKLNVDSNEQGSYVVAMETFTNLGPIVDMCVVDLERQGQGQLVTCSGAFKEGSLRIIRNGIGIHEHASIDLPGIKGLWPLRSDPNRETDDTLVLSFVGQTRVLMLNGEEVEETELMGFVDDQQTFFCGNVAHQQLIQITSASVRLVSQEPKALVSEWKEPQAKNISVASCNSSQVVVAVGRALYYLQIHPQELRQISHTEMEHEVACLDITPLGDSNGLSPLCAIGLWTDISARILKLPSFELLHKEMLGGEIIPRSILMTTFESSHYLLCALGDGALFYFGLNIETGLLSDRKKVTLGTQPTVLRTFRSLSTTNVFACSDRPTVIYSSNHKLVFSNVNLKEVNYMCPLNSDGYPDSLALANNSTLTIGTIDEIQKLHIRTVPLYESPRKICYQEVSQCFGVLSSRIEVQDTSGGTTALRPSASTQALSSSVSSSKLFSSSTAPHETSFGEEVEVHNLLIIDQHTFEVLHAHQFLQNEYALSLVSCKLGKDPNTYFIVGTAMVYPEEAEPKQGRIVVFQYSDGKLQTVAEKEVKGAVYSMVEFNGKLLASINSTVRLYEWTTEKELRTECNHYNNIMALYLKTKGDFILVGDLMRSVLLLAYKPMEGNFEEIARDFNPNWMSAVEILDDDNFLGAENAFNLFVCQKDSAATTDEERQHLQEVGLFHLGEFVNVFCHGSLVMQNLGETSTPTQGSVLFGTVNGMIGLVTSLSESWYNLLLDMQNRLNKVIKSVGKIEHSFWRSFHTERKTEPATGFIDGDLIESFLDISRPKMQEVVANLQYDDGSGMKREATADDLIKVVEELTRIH
T2 sequence (Q13422 whole entry): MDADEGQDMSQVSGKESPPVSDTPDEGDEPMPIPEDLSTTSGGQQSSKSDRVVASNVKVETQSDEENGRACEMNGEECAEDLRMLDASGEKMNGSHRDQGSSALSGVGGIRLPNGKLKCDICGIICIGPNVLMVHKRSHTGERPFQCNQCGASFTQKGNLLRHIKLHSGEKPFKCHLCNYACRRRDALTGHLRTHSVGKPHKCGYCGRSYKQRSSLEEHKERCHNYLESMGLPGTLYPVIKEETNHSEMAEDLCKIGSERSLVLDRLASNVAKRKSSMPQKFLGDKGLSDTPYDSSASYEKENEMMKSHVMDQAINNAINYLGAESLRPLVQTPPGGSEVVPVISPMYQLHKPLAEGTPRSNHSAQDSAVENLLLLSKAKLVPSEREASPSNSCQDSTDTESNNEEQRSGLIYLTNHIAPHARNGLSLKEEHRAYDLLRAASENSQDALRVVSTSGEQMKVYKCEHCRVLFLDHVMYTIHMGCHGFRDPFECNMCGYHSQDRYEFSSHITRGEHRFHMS
T1 sequence (Q9UKS7 whole entry): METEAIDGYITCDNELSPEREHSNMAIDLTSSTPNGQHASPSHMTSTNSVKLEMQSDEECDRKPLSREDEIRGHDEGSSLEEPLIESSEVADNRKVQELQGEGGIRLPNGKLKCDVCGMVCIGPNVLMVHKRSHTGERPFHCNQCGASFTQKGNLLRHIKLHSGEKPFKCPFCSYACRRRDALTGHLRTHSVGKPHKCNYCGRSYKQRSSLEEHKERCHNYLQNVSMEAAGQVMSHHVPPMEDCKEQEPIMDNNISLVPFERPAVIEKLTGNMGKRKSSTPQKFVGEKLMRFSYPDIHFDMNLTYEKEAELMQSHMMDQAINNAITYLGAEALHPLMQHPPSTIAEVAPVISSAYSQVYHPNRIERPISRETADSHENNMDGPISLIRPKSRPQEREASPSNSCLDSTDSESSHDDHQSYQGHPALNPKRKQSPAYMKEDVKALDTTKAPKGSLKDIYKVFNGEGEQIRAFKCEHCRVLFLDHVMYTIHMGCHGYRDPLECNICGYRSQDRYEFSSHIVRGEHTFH
T1 sequence (Q96SW2 whole entry): as the sequence (Q96SW2 whole entry partner) above
T1 sequence (Q16531 whole entry partner): as the sequence (Q16531 whole entry partner) above

Row | Compound | DC50 (Helios; [1]) | Dmax (Helios; [1]) | DC50 (Ikaros) | Dmax (Ikaros) | Dmax (Helios) | Helios Dmax (Helios; [1])
1 | CCCCN(C)Cc1ccnc(-c2ccc3c(c2)CN(C2CCC(=O)NC2=O)C3=O)c1 (stereo not drawn) [Example 9, 3-(5-(4-((butyl(methyl)amino)methyl)pyridin-2-yl)-1-oxoisoindolin-2-yl)piperidine-2,6-dione] | 0.167 µM | 87% | > 10 µM | 4% | – | –
2 | CCCN(Cc1ccnc(-c2ccc3c(c2)CN(C2CCC(=O)NC2=O)C3=O)c1)CC1CC1 (stereo not drawn) [Example 10, 3-(5-(4-(((cyclopropylmethyl)(propyl)amino)methyl)pyridin-2-yl)-1-oxoisoindolin-2-yl)piperidine-2,6-dione] | 0.183 µM | 67% | > 10 µM | 9% | – | –
3 | O=C1CCC(N2Cc3cc(-c4cc(CN5CCC(n6c(=O)[nH]c7ccccc76)CC5)ccn4)ccc3C2=O)C(=O)N1 (stereo not drawn) [Example 11, 3-(1-oxo-5-(4-((4-(2-oxo-2,3-dihydro-1H-benzo[d]imidazol-1-yl)piperidin-1-yl)methyl)pyridin-2-yl)isoindolin-2-yl)piperidine-2,6-dione] | 0.573 µM | – | > 10 µM | 7% | 59% | –
4 | O=C1CCC(N2Cc3cc(-c4cc(CN5CCN(Cc6ccc7c(c6)OCO7)CC5)ccn4)ccc3C2=O)C(=O)N1 (stereo not drawn) [Example 12, 3-(5-(4-((4-(benzo[d][1,3]dioxol-5-ylmethyl)piperazin-1-yl)methyl)pyridin-2-yl)-1-oxoisoindolin-2-yl)piperidine-2,6-dione] | > 10 µM | 37% | > 10 µM | 16% | – | –
5 | CCN(CC)C(=O)C1CCCN(Cc2ccnc(-c3ccc4c(c3)CN(C3CCC(=O)NC3=O)C4=O)c2)C1 (stereo not drawn) [Example 13, 1-((2-(2-(2,6-dioxopiperidin-3-yl)-1-oxoisoindolin-5-yl)pyridin-4-yl)methyl)-N,N-diethylpiperidine-3-carboxamide] | 0.2 µM | 67% | > 10 µM | 8% | – | –
6 | CC1CCN(Cc2ccnc(-c3ccc4c(c3)CN(C3CCC(=O)NC3=O)C4=O)c2)CC1 (stereo not drawn) [Example 14, 3-(5-(4-((4-methylpiperidin-1-yl)methyl)pyridin-2-yl)-1-oxoisoindolin-2-yl)piperidine-2,6-dione] | 0.036 µM | 80% | > 10 µM | 16% | – | –
7 | CN(CCc1ccccn1)Cc1ccnc(-c2ccc3c(c2)CN(C2CCC(=O)NC2=O)C3=O)c1 (stereo not drawn) [Example 16, 3-(5-(4-((methyl(2-(pyridin-2-yl)ethyl)amino)methyl)pyridin-2-yl)-1-oxoisoindolin-2-yl) piperidine-2,6-dione] | 0.788 µM | 63% | > 10 µM | 12% | – | –
8 | O=C1CCC(N2Cc3cc(-c4cc(CN5CCC(N6CCCCC6)CC5)ccn4)ccc3C2=O)C(=O)N1 (stereo not drawn) [Example 17, 3-(5-(4-([1,4′-bipiperidin]-1′-ylmethyl)pyridin-2-yl)-1-oxoisoindolin-2-yl)piperidine-2,6-dione] | > 10 µM | 16% | > 10 µM | 11% | – | –
9 | CC(C)N(Cc1ccccc1)Cc1ccnc(-c2ccc3c(c2)CN(C2CCC(=O)NC2=O)C3=O)c1 (stereo not drawn) [Example 19, 3-(5-(4-((benzyl(isopropyl)amino)methyl)pyridin-2-yl)-1-oxoisoindolin-2-yl)piperidine-2,6-dione] | 0.154 µM | 82% | > 10 µM | 50% | – | –
10 | CC1CCCN1Cc1ccnc(-c2ccc3c(c2)CN(C2CCC(=O)NC2=O)C3=O)c1 (stereo not drawn) [Example 20, 3-(5-(4-((2-methylpyrrolidin-1-yl)methyl)pyridin-2-yl)-1-oxoisoindolin-2-yl)piperidine-2,6-dione] | 0.06 µM | 80% | > 10 µM | 11% | – | –
11 | CN(C)CCN(C)Cc1ccnc(-c2ccc3c(c2)CN(C2CCC(=O)NC2=O)C3=O)c1 (stereo not drawn) [Example 21, 3-(5-(4-(((2-(dimethylamino)ethyl) (methyl)amino)methyl)pyridin-2-yl)-1-oxoisoindolin-2-yl)piperidine-2,6-dione] | > 10 µM | 35% | > 10 µM | 4% | – | –
12 | CCN(Cc1ccncc1)Cc1ccnc(-c2ccc3c(c2)CN(C2CCC(=O)NC2=O)C3=O)c1 (stereo not drawn) [Example 22, 3-(5-(4-((ethyl(pyridin-4-ylmethyl)amino)methyl)pyridin-2-yl)-1-oxoisoindolin-2-yl) piperidine-2,6-dione] | 0.537 µM | 67% | > 10 µM | 33% | – | –
13 | O=C1CCC(N2Cc3cc(-c4cc(CN5CCC(N6CCCC6)CC5)ccn4)ccc3C2=O)C(=O)N1 (stereo not drawn) [Example 23, 3-(1-oxo-5-(4-((4-(pyrrolidin-1-yl)piperidin-1-yl)methyl)pyridin-2-yl)isoindolin-2-yl)piperidine-2,6-dione] | > 10 µM | 22% | > 10 µM | 14% | – | –
14 | O=C1CCC(N2Cc3cc(-c4cc(CN5CCN(C(=O)c6ccco6)CC5)ccn4)ccc3C2=O)C(=O)N1 (stereo not drawn) [Example 24, 3-(5-(4-((4-(furan-2-carbonyl)piperazin-1-yl)methyl)pyridin-2-yl)-1-oxoisoindolin-2-yl)piperidine-2,6-dione] | > 10 µM | 3% | > 10 µM | 11% | – | –
15 | O=C1CCC(N2Cc3cc(-c4cc(CN5CCN(c6ccncc6)CC5)ccn4)ccc3C2=O)C(=O)N1 (stereo not drawn) [Example 25, 3-(1-oxo-5-(4-((4-(pyridin-4-yl)piperazin-1-yl)methyl)pyridin-2-yl)isoindolin-2-yl)piperidine-2,6-dione] | > 10 µM | 0% | > 10 µM | 0% | – | –
16 | O=C1CCC(N2Cc3cc(-c4cc(CN5CCN(c6cnccn6)CC5)ccn4)ccc3C2=O)C(=O)N1 (stereo not drawn) [Example 26, 3-(1-oxo-5-(4-((4-(pyrazin-2-yl)piperazin-1-yl)methyl)pyridin-2-yl)isoindolin-2-yl)piperidine-2,6-dione] | > 10 µM | 6% | > 10 µM | 15% | – | –
17 | Cc1cccc(N2CCN(Cc3ccnc(-c4ccc5c(c4)CN(C4CCC(=O)NC4=O)C5=O)c3)CC2C)c1 (stereo not drawn) [Example 27, 3-(5-(4-((3-methyl-4-(m-tolyl)piperazin-1-yl)methyl)pyridin-2-yl)-1-oxoisoindolin-2-yl)piperidine-2,6-dione] | > 10 µM | 36% | > 10 µM | 7% | – | –
18 | CC(=O)N1CCN(Cc2ccnc(-c3ccc4c(c3)CN(C3CCC(=O)NC3=O)C4=O)c2)CC1 (stereo not drawn) [Example 28, 3-(5-(4-((4-acetylpiperazin-1-yl)methyl)pyridin-2-yl)-1-oxoisoindolin-2-yl)piperidine-2,6-dione] | > 10 µM | 17% | > 10 µM | 13% | – | –
19 | CN1CCC(N(C)Cc2ccnc(-c3ccc4c(c3)CN(C3CCC(=O)NC3=O)C4=O)c2)C1 (stereo not drawn) [Example 29, 3-(5-(4-((methyl(1-methylpyrrolidin-3-yl)amino)methyl)pyridin-2-yl)-1-oxoisoindolin-2-yl)piperidine-2,6-dione] | 7.51 µM | – | > 10 µM | 6% | – | 55%
20 | CN1CCC[C@H]1CC1CCCCN1Cc1ccnc(-c2ccc3c(c2)CN(C2CCC(=O)NC2=O)C3=O)c1 (stereo partly drawn) [Example 30, 3-(5-(4-((2-(((S)-1-methylpyrrolidin-2-yl)methyl)piperidin-1-yl)methyl)pyridin-2-yl)-1-oxoisoindolin-2-yl)piperidine-2,6-dione] | > 10 µM | 46% | > 10 µM | -1% | – | –
21 | CC(=O)N[C@H]1CCN(Cc2ccnc(-c3ccc4c(c3)CN(C3CCC(=O)NC3=O)C4=O)c2)C1 (stereo partly drawn) [Example 31, N-((3S)-1-((2-(2-(2,6-dioxopiperidin-3-yl)-1-oxoisoindolin-5-yl)pyridin-4-yl)methyl)pyrrolidin-3-yl)acetamide] | 0.268 µM | 81% | > 10 µM | 20% | – | –
